Where “and” joins values, the source holds several entries; their conditions need not be identical. Identical values can stand only once. Entries after “also recorded” stand apart in the source; their conditions may differ.
Key:
boron transporter (Bor1) = target: T1, boron transporter (Bor1) (Arabidopsis thaliana, UniProt Q8VYR7); assay: Bor1 structural stability in detergent solution, CPM assay; conditions: CMC+0.04 wt % and CMC+0.2 wt %; two hours at 40° C.
T1 construct: GFP-His (TEV-cleavable) (C, cleaved yes); made in house; host or cells: S. cerevisiae
T1 sequence (Q8VYR7 whole entry, species assumed): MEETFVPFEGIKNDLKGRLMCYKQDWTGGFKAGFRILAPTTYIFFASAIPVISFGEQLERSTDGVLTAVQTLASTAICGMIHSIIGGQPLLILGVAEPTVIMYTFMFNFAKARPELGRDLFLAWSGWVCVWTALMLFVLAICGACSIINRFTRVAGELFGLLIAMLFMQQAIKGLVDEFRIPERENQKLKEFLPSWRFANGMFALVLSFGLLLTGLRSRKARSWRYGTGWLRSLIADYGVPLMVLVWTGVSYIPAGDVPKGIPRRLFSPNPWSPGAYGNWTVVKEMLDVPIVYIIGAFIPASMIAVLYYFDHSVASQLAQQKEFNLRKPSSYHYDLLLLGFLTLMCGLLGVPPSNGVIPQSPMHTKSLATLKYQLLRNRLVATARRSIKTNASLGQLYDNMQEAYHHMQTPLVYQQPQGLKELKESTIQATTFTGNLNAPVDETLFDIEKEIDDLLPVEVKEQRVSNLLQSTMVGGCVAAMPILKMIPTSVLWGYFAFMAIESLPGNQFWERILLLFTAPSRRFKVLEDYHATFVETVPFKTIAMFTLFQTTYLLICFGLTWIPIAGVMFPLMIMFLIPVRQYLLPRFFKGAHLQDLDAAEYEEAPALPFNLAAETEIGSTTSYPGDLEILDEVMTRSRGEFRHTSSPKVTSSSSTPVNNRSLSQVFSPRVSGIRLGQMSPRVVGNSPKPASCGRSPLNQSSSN
Description: An experiment for measuring the structural stability of a boron transporter (Bor1) in an aqueous solution due to P-XMAs was performed. The Bor1 structural stability was measured using a CPM assay, and concentrations of P-XMAs and DDM were estimated by measuring relative amounts of folded proteins at CMC+0.04 wt % (a) and CMC+0.2 wt % (b) to analyze Bor1 protein stability according to the concentration of an amphiphilic molecule.
Specifically, Bor1 was expressed as a fusion protein with a C-terminal GFP-His tag in S. cerevisiae. All steps were carried out at 4° C. A Bor1-containing membrane was resuspended with PBS (pH 7.4), 100 mM NaCl, and 10% glycerol and solubilized in 1% DDM for 1 hour with gentle stirring, followed by ultracentrifugation at 200,000 g for 45 minutes. The supernatant was adjusted with 10 mM imidazole, and applied to two 5 ml Ni^2+-NTA columns pre-equilibrated with Buffer A (PBS (pH 7.4), 100 mM NaCl, 10% glycerol, 0.03% DDM) supplemented with 10 mM imidazole. The column was washed with 5 CV of Buffer A supplemented with 30 mM imidazole, and washed with 5 CV of Buffer A supplemented with 50 mM imidazole, followed by elution in Buffer A supplemented with 500 mM imidazole. […] A clear plate cover was added, and the fluorescence of each well was monitored at 40° C. for 120 minutes.

[1] = target: T2, melibiose permease (MelB) (Salmonella typhimurium, UniProt P30878); assay: MelB extraction from membranes and thermostability, SDS-PAGE and western blotting; conditions: 1.5 wt % detergent, 90 minutes
T2 construct: made in house; host or cells: Salmonella typhimurium DW2 cells (ΔmelB and ΔlacZY) (so in the source); membrane preparation
T2 sequence (P30878 whole entry): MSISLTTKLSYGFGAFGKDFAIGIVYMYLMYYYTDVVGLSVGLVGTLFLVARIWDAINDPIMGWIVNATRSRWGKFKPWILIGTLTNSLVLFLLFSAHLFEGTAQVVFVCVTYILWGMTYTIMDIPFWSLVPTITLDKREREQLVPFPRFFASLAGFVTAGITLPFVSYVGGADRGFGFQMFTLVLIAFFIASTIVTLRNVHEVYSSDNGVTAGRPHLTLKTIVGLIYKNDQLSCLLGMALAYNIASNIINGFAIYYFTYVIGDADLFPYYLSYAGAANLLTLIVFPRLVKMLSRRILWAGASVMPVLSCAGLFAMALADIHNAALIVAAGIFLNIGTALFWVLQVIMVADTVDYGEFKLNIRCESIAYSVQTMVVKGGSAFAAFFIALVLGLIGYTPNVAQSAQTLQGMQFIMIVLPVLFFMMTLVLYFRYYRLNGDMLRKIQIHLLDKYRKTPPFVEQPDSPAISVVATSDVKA
Description: An experiment for measuring the structural stability of the Salmonella typhimurium melibiose permease (MelB) protein due to XMAs was performed. The MelB protein was extracted on a membrane using XMAs and DDM, and the amount and structure of the extracted protein were analyzed by SDS-PAGE and western blotting. A concentration of the used compound was 1.5 wt %, and the protein was extracted at a different temperature (0, 45, 55, or 65° C.) to evaluate two kinds of performance such as protein extraction efficiency and stabilization ability of the compound at the same time. Membrane samples that were not treated with XMAs or DDM were used as controls.
Specifically, MelBSt stability due to DDM and XMAs was evaluated according to the method described in the paper (P. S. Chae, et al., Nat. Methods 2010, 7, 1003-1008) written by the inventor in 2010. The protein (MelBSt) was produced using plasmid pK95ΔAHB/WT MelBSt/CH10 encoding wild-type MelB with a 10-His tag at the C-terminus and Salmonella typhimurium DW2 cells (ΔmelB and ΔlacZY). Cell growth and membrane preparation were carried out according to the method described in the paper (Nat. Commun. 2014, 5, 3009) written by A. S. Ethayathulla et al. A protein assay was performed using a Micro BCA kit (Thermo Scientific, Rockford, Ill.). To measure solubilization/stability, MelBSt-containing membrane samples (final protein concentration of 10 mg/mL) were incubated with a solubilization buffer (20 mM sodium phosphate, pH 7.5, 200 mM NaCl, 10% glycerol, 20 mM melibiose) and 1.5% (w/v) DDM, P-XMAs (P-XMA-C8, P-XMA-C9, P-XMA-C10, P-XMA-C11 and P-XMA-C12), M-XMAs (M-XMA-C11, M-XMA-C12, M-XMA-C14, M-XMA-C16 and M-XMA-C18) or O-XMAs (O-XMA-C11, O-XMA-C12, O-XMA-C14, O-XMA-C16 and O-XMA-C18) at four different temperatures (0, 45, 55 and 65° C.) for 90 minutes. Following ultracentrifugation at 355,590 g in a Beckman Optima™ MAX ultracentrifuge using a TLA-100 rotor for 45 minutes at 4° C., 20 μg proteins were separated by SDS-16% PAGE, and then immunoblotted with a Penta-His-HRP antibody (Qiagen, Germantown, Md.). MelBSt was detected using a SuperSignal West Pico chemiluminescent substrate by an ImageQuant LAS 4000 Biomolecular Imager (GE Health Care Life Sciences).

[2] = Hydrodynamic radius and size distribution of micelles by dynamic light scattering (DLS); type: physicochemical
Description: A method for measuring the radius of a micelle is not particularly limited, but a method well known in the art may be used, and for example, the measurement may be performed using a dynamic light scattering (DLS) experiment.
(§1) Specifically, the critical micellar concentration (CMC) was measured using fluorescence staining and diphenylhexatriene (DPH), and the hydrodynamic radii (Rh) of the micelles formed by agents were measured through a dynamic light scattering (DLS) experiment. The measured results are shown in Tables 1 and 2, compared with a conventional amphiphilic molecule (detergent), DDM.

[3] = target: T3, human β2 adrenergic receptor (β2AR) (Homo sapiens, UniProt P07550); assay: mBBr-β2AR fluorescence spectrum after dilution to CMC or less; type: biochemical; conditions: diluted with NH buffer, 30 minutes
T3 construct: made in house
T3 sequence (P07550 whole entry): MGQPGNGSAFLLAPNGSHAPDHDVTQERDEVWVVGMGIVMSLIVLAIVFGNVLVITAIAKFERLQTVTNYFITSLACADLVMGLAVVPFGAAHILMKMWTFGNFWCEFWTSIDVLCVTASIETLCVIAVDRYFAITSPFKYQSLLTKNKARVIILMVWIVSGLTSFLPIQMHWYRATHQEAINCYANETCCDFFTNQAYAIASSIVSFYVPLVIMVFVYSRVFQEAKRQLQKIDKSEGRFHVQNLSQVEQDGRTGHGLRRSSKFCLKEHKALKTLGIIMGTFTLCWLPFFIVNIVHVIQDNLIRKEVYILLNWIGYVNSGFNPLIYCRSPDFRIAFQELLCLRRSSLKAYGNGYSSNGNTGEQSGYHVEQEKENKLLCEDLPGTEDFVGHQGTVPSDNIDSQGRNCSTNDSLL
Description: An experiment for comparing changes in protein structures of XMAs and DDM at CMC or less of an amphiphilic molecule was carried out.
Specifically, 0.5 μl of an unliganded mBB-labeled receptor solubilized in 20×CMC P-XMA-C11 or P-XMA-C12 at 50 μM was diluted with 500 μl of a NH buffer (20 mM HEPES pH 7.5, 100 mM NaCl). The protein was incubated for 30 minutes, and the mBBr spectrum was measured. The receptor solubilized in 0.1% DDM was diluted with a NH buffer, and used as a control.

[4] = Critical micelle concentration by fluorescence staining with diphenylhexatriene (DPH); type: physicochemical; conditions: aqueous solution
Description: While a method for measuring CMC is not particularly limited, a method widely known in the art may be used, and the measurement may be performed by, for example, a fluorescence staining method using diphenylhexatriene (DPH).
as §1

CCCCCCCCCCCCO[C@@H]1O[C@H](CO)[C@@H](O[C@H]2O[C@H](CO)[C@@H](O)[C@H](O)[C@H]2O)[C@H](O)[C@H]1O [DDM, n-dodecyl-β-D-maltopyranoside, reference compound]
Bor1 structural stability (relative amount of folded protein) (boron transporter (Bor1)): most instable state | MelB protein extraction efficiency ([1]; 0° C.): high protein extraction efficiency | MelB protein extraction efficiency ([1]; 45° C.): high protein extraction efficiency | MelB protein extraction / maintained solubilization ([1]; 55° C.): hardly observed; also recorded: failed to maintain the solubilization of MelB | MelB protein extraction ([1]; 65° C.): did not extract the protein | Rh (nm), hydrodynamic radius of micelles ([2]; 1.0 wt % stated for M-/O-XMAs (FIG. 37)): 3.4 nm and 3.4 ± 0.02 nm | size distribution of micelles (number of micelle sets) ([2]; FIGS. 36 and 37): one set of micelles | structural change of β2AR on dilution to CMC or less [3]: clear structural change due to dilution | CMC [4]: ~170 µM | CMC (wt %) [4]: ~0.0087 wt %
